From patent US7335661B2, “Fungicidal mixtures” (BASF Aktiengesellschaft, priority 2002, dated 2008)

What was measured:
Botrytis cinerea = assay: Activity against gray mold on bellpepper leaves caused by Botrytis cinerea, protective application; type: in vivo; conditions: individual active compound, bellpepper seedlings, 5 days
Description: (§1) The active compounds, separately or jointly, were prepared as a stock solution with 0.25% by weight of active compound in acetone or DMSO. 1% by weight of the emulsifier Uniperol® EL (wetting agent having emulsifying and dispersing action based on ethoxylated alkylphenols) was added to this solution, and the solution was diluted with water to the desired concentration.
(§2) Evaluation was carried out by determining the infected leaf areas as a percentage. These percentages were converted into efficacies. The efficacy (W) was calculated as follows using Abbot's formula: W=(1−a/b)·100 • a corresponds to the fungal infection of the treated plants in % and • b corresponds to the fungal infection of the untreated (control) plants in %
(§3) An efficacy of 0 means that the infection level of the treated plants corresponds to that of the untreated control plants; an efficacy of 100 means that the treated plants were not infected.
(§4) The expected efficacies of the mixtures of the active compounds were determined using Colby's formula [R. S. Colby, Weeds 15, 20-22 (1967)] and compared with the observed efficacies. Colby's formula: E=x+y−x·y/100 • E expected efficacy, expressed as % of the untreated control, when using the mixture of the active compounds A and B at the concentrations a and b • x efficacy, expressed as % of the untreated control, when using active compound A at a concentration a • y efficacy, expressed as % of the untreated control, when using active compound B at a concentration b
Bellpepper seedlings of the cultivar “Neusiedler Ideal Elite” were, after 4-5 leaves were well developed, sprayed to runoff point with an aqueous suspension having the active compound concentration stated below. The next day, the treated plants were inoculated with a spore suspension of Botrytis cinerea which contained 1.7×10^6 spores/ml in a 2% strength aqueous biomalt solution. The test plants were then placed in a climatized chamber at 22-24_C and high atmospheric humidity. After 5 days, the extent of the fungus development on the leaves could be determined visually in %.
Evaluation was carried out analogously to example 1.

Puccinia recondita = assay: Curative activity against wheat leaf rust caused by Puccinia recondita; type: in vivo; conditions: individual active compound, 7 days
Description: as §1
Leaves of potted wheat seedlings of the cultivar “Kanzler” were dusted with spores of leaf rust (Puccinia recondita). For 24 hours, the pots were then placed at 20-22_C in a chamber with high atmospheric humidity (90-95%). During this time, the spores germinated and the germinal tubes penetrated into the leaf tissue. The next day, the infected plants were sprayed to runoff point with an aqueous suspension having the concentration of active compounds stated below. The suspension or emulsion was prepared as described above. After the spray coating had dried on, the test plants were cultivated in a greenhouse at 20-22_C and 65-70% relative atmospheric humidity for 7 days. The extent of rust fungus development on the leaves was then determined.
as §2, §3, §4

[1] = 4 ppm in the spray liquor, wheat seedlings cv. Kanzler

SMILES | Efficacy in % of the untreated control (Botrytis cinerea; 0.25 ppm in the spray liquor) [%] | Efficacy in % of the untreated control (Botrytis cinerea; 1 ppm in the spray liquor) [%] | Efficacy in % of the untreated control (Puccinia recondita; 0.25 ppm in the spray liquor, wheat seedlings) [%] | Efficacy in % of the untreated control (Puccinia recondita; [1]) [%] | Efficacy in % of the untreated control (Botrytis cinerea; 4 ppm in the spray liquor) [%] | Efficacy in % of the untreated control (Puccinia recondita; 1 ppm in the spray liquor, wheat seedlings) [%]
O=C(Nc1ccccc1-c1ccc(Cl)cc1)c1cccnc1Cl [II-5, boscalid, reference compound] | 0 | 0 | 0 | 0 | – | –
CC1CCN(c2c(-c3c(F)cc(F)cc3F)c(Cl)nc3ncnn23)CC1 [I, 5-chloro-7-(4-methylpiperidin-1-yl)-6-(2,4,6-trifluorophenyl)-[1,2,4]triazolo[1,5-a]pyrimidine] | 0 | 37 | – | 56 | 68 | 0
